Test [1] concerns the target MAGL (Mus musculus (Mouse), UniProt O35678). As to the kind of experiment: In vitro competitive activity-based protein profiling, mouse brain proteome. It counts as biochemical. The conditions noted are these: 1 uM; mouse.
Test [2] concerns the target MAGL (Homo sapiens (Human), UniProt Q99685). Nature of the test: In vitro competitive activity-based protein profiling (gel-based, FP-Rh or HT-01 probe). Type of test: biochemical. The conditions noted are these: for IC50: read-out: MAGL Human PC3 (IC50). Here is the method: In Vitro Competitive Activity-Based Protein Profiling.
Proteomes (human prefrontal cortex or cell membrane fractions) (50 μL, 1.0 mg/mL total protein concentration) were preincubated with varying concentrations of inhibitors at 37° C. After 30 min, FP-Rh or HT-01 (1.0 μL, 50 μM in DMSO) was added and the mixture was incubated for another 30 min at room temperature. Reactions were quenched with SDS loading buffer (15 μL—4×) and run on SDS-PAGE.

The mark [3] stands for this setting: human PC3, read-out: MAGL % Inhibition at 1 μM (human PC3).
The mark [4] stands for this setting: human PFC (prefrontal cortex), read-out: MAGL % Inhibition at 1 μM (human PFC).

This is an account of results in patent US11142526B2, “Spirocycle compounds and methods of making and using same” (H. Lundbeck A/S, priority 2017, dated 2021).

In general, inhibition refers to the relative decrease from the control value, in per cent. In general, IC50 refers to the concentration that inhibits the measured activity by half.

Like-named read-outs stand apart in the source and are kept apart here.

MAGL (Homo sapiens (Human), UniProt Q99685), sequence (Q99685 whole entry): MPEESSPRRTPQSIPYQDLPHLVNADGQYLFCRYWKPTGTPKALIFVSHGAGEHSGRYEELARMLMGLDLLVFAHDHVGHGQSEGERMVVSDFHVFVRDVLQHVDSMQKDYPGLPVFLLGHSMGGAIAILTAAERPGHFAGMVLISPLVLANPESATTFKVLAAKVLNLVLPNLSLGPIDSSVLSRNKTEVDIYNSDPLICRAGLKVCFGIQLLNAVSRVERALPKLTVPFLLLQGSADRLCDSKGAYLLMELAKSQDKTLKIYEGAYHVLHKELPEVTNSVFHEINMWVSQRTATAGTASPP
MAGL (Mus musculus (Mouse), UniProt O35678), sequence (O35678 whole entry): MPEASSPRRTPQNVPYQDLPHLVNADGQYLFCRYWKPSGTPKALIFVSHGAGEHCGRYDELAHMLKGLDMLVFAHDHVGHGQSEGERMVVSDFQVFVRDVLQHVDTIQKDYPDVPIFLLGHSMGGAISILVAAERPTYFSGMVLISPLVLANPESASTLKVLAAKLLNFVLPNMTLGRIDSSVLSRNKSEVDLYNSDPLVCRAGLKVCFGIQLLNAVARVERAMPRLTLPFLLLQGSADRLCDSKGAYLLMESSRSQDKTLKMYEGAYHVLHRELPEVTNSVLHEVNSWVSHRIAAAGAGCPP

Turning to `O=C(OC(C(F)(F)F)C(F)(F)F)N1CCC2(CCCN2C(=O)c2cnn3ccc(Cl)nc23)CC1` [Example 145, 1,1,1,3,3,3-Hexafluoropropan-2-yl 1-(5-chloropyrazolo[1,5-a]pyrimidine-3-carbonyl)-1,8-diazaspiro[4.5] decane-8-carboxylate], the inhibition at 1 µM in test [1], in test [2] (setting [3]) and in test [2] (setting [4]) was more than 75% each time. Also, the IC50 in test [2] (human PC3) is less than 100 nM.

Turning to `O=C(OC(C(F)(F)F)C(F)(F)F)N1CCC2(CCCN2C(=O)c2cnn3ccccc23)CC1` [Example 146, 1,1,1,3,3,3-Hexafluoropropan-2-yl 1-(pyrazolo[1,5-a]pyridine-3-carbonyl)-1,8-diazaspiro[4.5] decane-8-carboxylate], the inhibition at 1 µM in test [1], in test [2] (setting [3]) and in test [2] (setting [4]) was more than 75% throughout.

On to `O=C(OC(C(F)(F)F)C(F)(F)F)N1CCC2(CCCN2C(=O)c2cnn3c2NCCC3)CC1` [Example 147, 1.1,1,3,3,3-Hexafluoropropan-2-yl 1-(4,5,6,7-tetrahydropyrazolo [1,5-a]pyrimidine-3-carbonyl)-1,8-diazaspiro[4.5] decane-8-carboxylate], for which the inhibition at 1 µM in test [1], in test [2] (setting [3]) and in test [2] (setting [4]) was more than 75% each time. Besides, the IC50 in test [2] (human PC3) is less than 100 nM.

For the molecule `O=C(OC(C(F)(F)F)C(F)(F)F)N1CCC2(CCCN2C(=O)c2cnn3c2OCCC3)CC1` [Example 149, 1,1,1,3,3,3-Hexafluoropropan-2-yl 1-(6,7-dihydro-5H-pyrazolo[5,1-b] [1,3]oxazine-3-carbonyl)-1.8-diazaspiro[4.5] decane-8-carboxylate], the inhibition at 1 µM in test [1], in test [2] (setting [3]) and in test [2] (setting [4]) was more than 75% each time. Moreover, the IC50 in test [2] (human PC3) is less than 100 nM.

As to `O=C(OC(C(F)(F)F)C(F)(F)F)N1CCC2(CCCN2C(=O)c2cc3n(n2)CCN(CC2CC2)C3)CC1` [Example 156, 1,1,1,3,3,3-Hexafluoropropan-2-yl 1-(5-(cyclopropylmethyl)-4,5,6,7-tetrahydropyrazolo [1,5-a]pyrazine-2-carbonyl)-1,8-diazaspiro[4.5] decane-8-carboxylate], the inhibition at 1 µM in test [1], in test [2] (setting [3]) and in test [2] (setting [4]) was more than 75% in each case. In addition, the IC50 in test [2] (human PC3) was less than 100 nM.

On to `O=C(OC(C(F)(F)F)C(F)(F)F)N1CCC2(CCCN2C(=O)c2nn3cccnc3c2Cl)CC1` [Example 157, 1,1,1,3,3,3-Hexafluoropropan-2-yl 1-(3-chloropyrazolo[1,5-a]pyrimidine-2-carbonyl)-1,8-diazaspiro[4.5] decane-8-carboxylate], for which the inhibition at 1 µM in test [1], in test [2] (setting [3]) and in test [2] (setting [4]) was more than 75% each time.

For `O=C(O)CN1CCn2cc(C(=O)N3CCCC34CCN(C(=O)OC(C(F)(F)F)C(F)(F)F)CC4)nc2C1` [Example 158, 2-(2-(8-(((1,1,1,3,3,3-Hexafluoropropan-2-yl)oxy)carbonyl)-1,8-diazaspiro[4.5]decane-1-carbonyl)-5,6-dihydroimidazo[1,2-a]pyrazin-7(8H)-yl) acetic acid], the inhibition at 1 µM in test [1] is 25 to 75%; in test [2] (setting [3]) it was more than 75%; in test [2] (setting [4]) it was more than 75%.

`O=C(OC(C(F)(F)F)C(F)(F)F)N1CCC2(CCCN2C(=O)c2cn3ccncc3n2)CC1` [Example 159, 1,1,1,3,3,3-Hexafluoropropan-2-yl 1-(imidazo[1,2-a]pyrazine-2-carbonyl)-1,8-diazaspiro[4.5] decane-8-carboxylate]: the inhibition at 1 µM in test [1] and in test [2] (setting [4]) was more than 75% in each case. Further, in test [2] (human PC3), the IC50 was less than 100 nM.

With `O=C(OC(C(F)(F)F)C(F)(F)F)N1CCC2(CCCN2C(=O)c2cn3c(n2)CN(C2CCOCC2)CC3)CC1` [Example 162, 1,1,1,3,3,3-Hexafluoropropan-2-yl 1-(7-(tetrahydro-2H-pyran-4-yl)-5,6,7,8-tetrahydroimidazo [1,2-a]pyrazine-2-carbonyl)-1,8-diazaspiro[4.5] decane-8-carboxylate], the inhibition at 1 µM in test [1] and in test [2] (setting [3]) was more than 75% in each case. Moreover, the IC50 in test [2] (human PC3) is less than 100 nM.

With `O=C(OC(C(F)(F)F)C(F)(F)F)N1CCC2(CCCN2C(=O)c2cn3nc(Cl)ccc3n2)CC1` [Example 163, 1,1,1,3,3,3-Hexafluoropropan-2-yl 1-(6-chloroimidazo[1,2-b]pyridazine-2-carbonyl)-1,8-diazaspiro[4.5] decane-8-carboxylate], the inhibition at 1 µM in test [1] and in test [2] (setting [3]) was more than 75% throughout.

Consider `O=C(OC(C(F)(F)F)C(F)(F)F)N1CCC2(CCCN2C(=O)c2cc3nccc(C(F)(F)F)n3n2)CC1` [Example 164, 1,1,1,3,3,3-Hexafluoropropan-2-yl 1-(7-(trifluoromethyl)pyrazolo[1,5-a]pyrimidine-2-carbonyl)-1,8-diazaspiro[4.5] decane-8-carboxylate], for which the inhibition at 1 µM in test [1], in test [2] (setting [3]) and in test [2] (setting [4]) was more than 75% in each case.

`O=C(OC(C(F)(F)F)C(F)(F)F)N1CCC2(CCCN2C(=O)c2cc3nccc(C4CC4)n3n2)CC1` [Example 165, 1,1,1,3,3,3-Hexafluoropropan-2-yl 1-(7-cyclopropylpyrazolo [1,5-a]pyrimidine-2-carbonyl)-1,8-diazaspiro[4.5] decane-8-carboxylate]: the inhibition at 1 µM in test [1], in test [2] (setting [3]) and in test [2] (setting [4]) was more than 75% throughout.

As to `O=C(OC(C(F)(F)F)C(F)(F)F)N1CCC2(CCCN2C(=O)c2cc3nc(C(F)F)cc(C(F)F)n3n2)CC1` [Example 166, 1,1,1,3,3,3-Hexafluoropropan-2-yl 1-(5,7-bis(difluoromethyl)pyrazolo [1,5-a]pyrimidine-2-carbonyl)-1,8-diazaspiro [4.5]decane-8-carboxylate], the inhibition at 1 µM in test [1], in test [2] (setting [3]) and in test [2] (setting [4]) was more than 75% in each case.

For the molecule `O=C(OC(C(F)(F)F)C(F)(F)F)N1CCC2(CCCN2C(=O)c2cc3nc(C4CC4)cc(C(F)F)n3n2)CC1` [Example 167, 1.1,1,3,3,3-Hexafluoropropan-2-yl 1-(5-cyclopropyl-7-(difluoromethyl)pyrazolo[1,5-a]pyrimidine-2-carbonyl)-1,8-diazaspiro[4.5] decane-8-carboxylate], the inhibition at 1 µM in test [1], in test [2] (setting [3]) and in test [2] (setting [4]) was more than 75% throughout.

For `CN(C(=O)c1cnc2cccnn12)C1(C)CCN(C(=O)OC(C(F)(F)F)C(F)(F)F)CC1` [Example 168, 1,1,1,3,3,3-Hexafluoropropan-2-yl 4-methyl-4-(N-methylimidazo[1,2-b]pyridazine-3-carboxamido) piperidine-1-carboxylate], the inhibition at 1 µM in test [1], in test [2] (setting [3]) and in test [2] (setting [4]) was more than 75% in each case. In test [2] (human PC3), the IC50 was less than 100 nM.

Regarding `Cc1nn2cccnc2c1C(=O)N1CCCC12CCN(C(=O)OC(C(F)(F)F)C(F)(F)F)CC2` [Example 171, 1,1,1,3,3,3-Hexafluoropropan-2-yl 1-(2-methylpyrazolo[1,5-a]pyrimidine-3-carbonyl)-1,8-diazaspiro[4.5] decane-8-carboxylate], the inhibition at 1 µM in test [1], in test [2] (setting [3]) and in test [2] (setting [4]) was more than 75% throughout. In addition, the IC50 in test [2] (human PC3) was less than 100 nM.

Regarding `Cc1cc(C)n2nc(C)c(C(=O)N3CCCC34CCN(C(=O)OC(C(F)(F)F)C(F)(F)F)CC4)c2n1` [Example 172, 1,1,1,3,3,3-Hexafluoropropan-2-yl 1-(2,5,7-trimethylpyrazolo [1,5-a]pyrimidine-3-carbonyl)-1,8-diazaspiro[4.5] decane-8-carboxylate], the inhibition at 1 µM in test [1], in test [2] (setting [3]) and in test [2] (setting [4]) was more than 75% throughout. The IC50 in test [2] (human PC3) is less than 100 nM.

Regarding `O=C(O)Cn1cc(Cl)c(C(=O)N2CCCC23CCN(C(=O)OC(C(F)(F)F)C(F)(F)F)CC3)n1` [Example 173, 2-(4-Chloro-3-(8-(((1,1,1,3,3,3-hexafluoropropan-2-yl)oxy)carbonyl)-1,8-diazaspiro[4.5]decane-1-carbonyl)-1H-pyrazol-1-yl)acetic acid], the figures for the inhibition at 1 µM in test [1] and in test [2] (setting [4]) were less than 25% and more than 75%, respectively.

Turning to `Cn1cc(CN2CCCC23CCN(C(=O)OC(C(F)(F)F)C(F)(F)F)CC3)cn1` [Example 175, 1,1,1,3,3,3-Hexafluoropropan-2-yl 1-((1-methyl-1H-pyrazol-4-yl)methyl)-1,8-diazaspiro[4.5] decane-8-carboxylate], the inhibition at 1 µM is 25 to 75% in test [1], more than 75% in test [2] (setting [3]) and more than 75% in test [2] (setting [4]).

In the case of `CN(C(=O)C1(c2ncccn2)CC1)C1(C)CCN(C(=O)OC(C(F)(F)F)C(F)(F)F)CC1` [Example 177, 1,1,1,3,3,3-Hexafluoropropan-2-yl 4-methyl-4-(N-methyl-1-(pyrimidin-2-yl)cyclopropane-1-carboxamido) piperidine-1-carboxylate], the inhibition at 1 µM in test [1], in test [2] (setting [3]) and in test [2] (setting [4]) was more than 75% in each case.

Consider `CCN(C(=O)c1cn2c(n1)CN(C1CC1)CC2)C1(C)CCN(C(=O)OC(C(F)(F)F)C(F)(F)F)CC1` [Example 178, 1,1,1,3,3,3-Hexafluoropropan-2-yl 4-(7-cyclopropyl-N-ethyl-5,6,7,8-tetrahydroimidazo [1,2-a]pyrazine-2-carboxamido)-4-methylpiperidine-1-carboxylate], for which the inhibition at 1 µM in test [1], in test [2] (setting [3]) and in test [2] (setting [4]) was more than 75% each time.
